Laboratory results from patent publication US20230085307A1, “PYRIDAZINONE COMPOUND AND HERBICIDE” (NISSAN CHEMICAL CORPORATION, priority 2019, published 2023).

Assays:
[1] = tested on: chickweed; assay: Test Example 5: herbicidal effect by foliage application, plastic box (Table 20, symbol P); format: in vivo, common chickweed (Stellaria media); conditions: foliage application, 320 g/ha, three weeks after application
Procedure, shortened: (§1)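 Plants sown in sterilized diluvial soil and grown 14 days in a greenhouse at 25° C to 30° C, then sprayed on the foliage with the compound's emulsion diluted in water to a predetermined herbicide amount. Injury to weeds and crops scored three weeks after application on a visual rating scale.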

[2] = tested on: barnyard grass; assay: Test Example 4: herbicidal effect by soil treatment (Table 19, symbol H); format: in vivo, barnyard grass (Echinochloa crus-galli); conditions: amount of applied herbicide 320 g/ha
Procedure, shortened: (§2)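 Seeds were sown in sterilized diluvial soil and covered with about 1.5 cm of soil. An emulsion formulation diluted with water to a predetermined herbicide amount was sprayed evenly onto the soil surface. Plants grew in a greenhouse at 25° C. to 30° C., and the effect was scored three weeks after application using criteria from an earlier test.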

[3] = tested on: lambsquarters; assay: Test Example 4: herbicidal effect by soil treatment (Table 19, symbol O); format: in vivo, lambsquarters (Chenopodium album); conditions: amount of applied herbicide 320 g/ha
Procedure, shortened: as §2

[4] = tested on: Italian ryegrass; assay: Test Example 4: herbicidal effect by soil treatment (Table 19, symbol K); format: in vivo, Italian ryegrass (Lolium multiflorum); conditions: amount of applied herbicide 320 g/ha
Procedure, shortened: as §2

[5] = tested on: redroot pigweed; assay: Test Example 4: herbicidal effect by soil treatment (Table 19, symbol N); format: in vivo, redroot pigweed (Amaranthus retroflexus); conditions: amount of applied herbicide 320 g/ha
Procedure, shortened: as §2

[6] = tested on: windgrass; assay: Test Example 4: herbicidal effect by soil treatment (Table 19, symbol L); format: in vivo, windgrass (Apera spica-venti); conditions: amount of applied herbicide 320 g/ha
Procedure, shortened: as §2

[7] = tested on: chickweed; assay: Test Example 4: herbicidal effect by soil treatment (Table 19, symbol P); format: in vivo, common chickweed (Stellaria media); conditions: amount of applied herbicide 320 g/ha
Procedure, shortened: as §2

[8] = tested on: wild oat; assay: Test Example 4: herbicidal effect by soil treatment (Table 19, symbol I); format: in vivo, wild oat (Avena fatua); conditions: amount of applied herbicide 320 g/ha
Procedure, shortened: as §2

[9] = tested on: barnyard grass; assay: Test Example 5: herbicidal effect by foliage application, plastic box (Table 20, symbol H); format: in vivo, barnyard grass (Echinochloa crus-galli); conditions: foliage application, 320 g/ha, three weeks after application
Procedure, shortened: as §1

[10] = tested on: late watergrass; assay: Test Example 1: herbicidal activity, application before weed generation under submerged conditions (Table 16, symbol A); format: in vivo, late watergrass (Echinochloa oryzicola); conditions: 320 g/ha applied herbicide
Procedure, shortened: (§3)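 Submerged Wagner pots (alluvial soil, 4 cm water) sown with weed seeds and planted with 2.5-leaf rice seedlings; emulsifiable concentrate diluted in water applied to water surface on sowing day. Held in greenhouse at 25-30 °C; injury scored 0-5 by herbicidal rate after three weeks.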

[11] = tested on: redroot pigweed; assay: Test Example 5: herbicidal effect by foliage application, plastic box (Table 20, symbol N); format: in vivo, redroot pigweed (Amaranthus retroflexus); conditions: foliage application, 320 g/ha, three weeks after application
Procedure, shortened: as §1

[12] = tested on: green foxtail; assay: Test Example 5: herbicidal effect by foliage application, plastic box (Table 20, symbol G); format: in vivo, green foxtail (Setaria viridis); conditions: foliage application, 320 g/ha, three weeks after application
Procedure, shortened: as §1

[13] = tested on: southern crabgrass; assay: Test Example 5: herbicidal effect by foliage application, plastic box (Table 20, symbol F); format: in vivo, southern crabgrass (Digitaria ciliaris); conditions: foliage application, 320 g/ha, three weeks after application
Procedure, shortened: as §1

[14] = tested on: Italian ryegrass; assay: Test Example 5: herbicidal effect by foliage application, plastic box (Table 20, symbol K); format: in vivo, Italian ryegrass (Lolium multiflorum); conditions: foliage application, 320 g/ha, three weeks after application
Procedure, shortened: as §1

[15] = tested on: blackgrass; assay: Test Example 5: herbicidal effect by foliage application, plastic box (Table 20, symbol J); format: in vivo, blackgrass (Alopecurus myosuroides); conditions: foliage application, 320 g/ha, three weeks after application
Procedure, shortened: as §1

[16] = tested on: wild oat; assay: Test Example 5: herbicidal effect by foliage application, plastic box (Table 20, symbol I); format: in vivo, wild oat (Avena fatua); conditions: foliage application, 320 g/ha, three weeks after application
Procedure, shortened: as §1

[17] = tested on: persian speedwell; assay: Test Example 5: herbicidal effect by foliage application, plastic box (Table 20, symbol R); format: in vivo, Persian speedwell (Veronica persica); conditions: foliage application, 320 g/ha, three weeks after application
Procedure, shortened: as §1

[18] = tested on: false cleavers; assay: Test Example 5: herbicidal effect by foliage application, plastic box (Table 20, symbol Q); format: in vivo, false cleavers (Galium spurium); conditions: foliage application, 320 g/ha, three weeks after application
Procedure, shortened: as §1

[19] = tested on: blackgrass; assay: Test Example 4: herbicidal effect by soil treatment (Table 19, symbol J); format: in vivo, blackgrass (Alopecurus myosuroides); conditions: amount of applied herbicide 320 g/ha
Procedure, shortened: as §2

[20] = tested on: southern crabgrass; assay: Test Example 4: herbicidal effect by soil treatment (Table 19, symbol F); format: in vivo, southern crabgrass (Digitaria ciliaris); conditions: amount of applied herbicide 320 g/ha
Procedure, shortened: as §2

[21] = tested on: Chinese sprangletop; assay: Test Example 3: herbicidal effect by foliage application, Wagner pot (Table 18, symbol D); format: in vivo, chinese sprangletop (Leptochloa chinensis); conditions: 320 g/ha
Procedure, shortened: (§4)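 Plants were sown in alluvial soil held under 0.1–0.5 cm standing water and grown 14 days in a greenhouse at 25–30 °C. An emulsifiable formulation, water-diluted to the set dose, was then sprayed onto the foliage, and effects were scored three weeks later using previously defined criteria.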

[22] = tested on: velvetleaf; assay: Test Example 4: herbicidal effect by soil treatment (Table 19, symbol M); format: in vivo, velvetleaf (Abutilon theophrasti); conditions: amount of applied herbicide 320 g/ha
Procedure, shortened: as §2

[23] = tested on: oval-leafed pondweed; assay: Test Example 1: herbicidal activity, application before weed generation under submerged conditions (Table 16, symbol C); format: in vivo, oval-leafed pondweed (Monochoria vaginalis); conditions: 320 g/ha applied herbicide
Procedure, shortened: as §3

[24] = tested on: false cleavers; assay: Test Example 4: herbicidal effect by soil treatment (Table 19, symbol Q); format: in vivo, false cleavers (Galium spurium); conditions: amount of applied herbicide 320 g/ha
Procedure, shortened: as §2

[25] = tested on: lambsquarters; assay: Test Example 5: herbicidal effect by foliage application, plastic box (Table 20, symbol O); format: in vivo, lambsquarters (Chenopodium album); conditions: foliage application, 320 g/ha, three weeks after application
Procedure, shortened: as §1

[26] = tested on: green foxtail; assay: Test Example 4: herbicidal effect by soil treatment (Table 19, symbol G); format: in vivo, green foxtail (Setaria viridis); conditions: amount of applied herbicide 320 g/ha
Procedure, shortened: as §2

[27] = tested on: windgrass; assay: Test Example 5: herbicidal effect by foliage application, plastic box (Table 20, symbol L); format: in vivo, windgrass (Apera spica-venti); conditions: foliage application, 320 g/ha, three weeks after application
Procedure, shortened: as §1

[28] = tested on: velvetleaf; assay: Test Example 5: herbicidal effect by foliage application, plastic box (Table 20, symbol M); format: in vivo, velvetleaf (Abutilon theophrasti); conditions: foliage application, 320 g/ha, three weeks after application
Procedure, shortened: as §1

[29] = tested on: persian speedwell; assay: Test Example 4: herbicidal effect by soil treatment (Table 19, symbol R); format: in vivo, Persian speedwell (Veronica persica); conditions: amount of applied herbicide 320 g/ha
Procedure, shortened: as §2

[30] = tested on: barnyard grass; assay: Test Example 3: herbicidal effect by foliage application, Wagner pot (Table 18, symbol H); format: in vivo, barnyard grass (Echinochloa crus-galli); conditions: 320 g/ha
Procedure, shortened: as §4

[31] = tested on: rice flat sedge; assay: Test Example 3: herbicidal effect by foliage application, Wagner pot (Table 18, symbol E); format: in vivo, rice flat sedge (Cyperus iria); conditions: 320 g/ha
Procedure, shortened: as §4

[32] = tested on: Japanese bulrush; assay: Test Example 1: herbicidal activity, application before weed generation under submerged conditions (Table 16, symbol B); format: in vivo, Japanese bulrush (Schoenoplectus juncoides); conditions: 320 g/ha applied herbicide
Procedure, shortened: as §3

Structure (SMILES)	herbicidal effect grade, P: chickweed [1]	herbicidal effect rating, H: barnyard grass [2]	herbicidal effect rating, O: lambsquarters [3]	herbicidal effect rating, K: Italian ryegrass [4]	herbicidal effect rating, N: redroot pigweed [5]	herbicidal effect rating, L: windgrass [6]	herbicidal effect rating, P: chickweed [7]	herbicidal effect rating, I: wild oat [8]	herbicidal effect grade, H: barnyard grass [9]	Herbicidal effect on A: late watergrass (grade 0-5) [10]	herbicidal effect grade, N: redroot pigweed [11]	herbicidal effect grade, G: green foxtail [12]	herbicidal effect grade, F: southern crabgrass [13]	herbicidal effect grade, K: Italian ryegrass [14]	herbicidal effect grade, J: blackgrass [15]	herbicidal effect grade, I: wild oat [16]	herbicidal effect grade, R: persian speedwell [17]	herbicidal effect grade, Q: false cleavers [18]	herbicidal effect rating, J: blackgrass [19]	herbicidal effect rating, F: southern crabgrass [20]	further results
CCCCc1ccc(-c2sc3ccccc3c2-c2c(OC(=O)CCC)c(C)nn(C)c2=O)cc1 [1-006]	5 (Herbicidal rate of 90% or more (almost completely withered))	0 (Herbicidal rate of 5% or less (almost no effect))	4 (Herbicidal rate of 70% or more and less than 90%)	0 (Herbicidal rate of 5% or less (almost no effect))	0 (Herbicidal rate of 5% or less (almost no effect))	0 (Herbicidal rate of 5% or less (almost no effect))	0 (Herbicidal rate of 5% or less (almost no effect))	0 (Herbicidal rate of 5% or less (almost no effect))	0 (Herbicidal rate of 5% or less (almost no effect))	3 (Herbicidal rate of 40% or more and less than 70%)	5 (Herbicidal rate of 90% or more (almost completely withered))	0 (Herbicidal rate of 5% or less (almost no effect))	0 (Herbicidal rate of 5% or less (almost no effect))	0 (Herbicidal rate of 5% or less (almost no effect))	0 (Herbicidal rate of 5% or less (almost no effect))	0 (Herbicidal rate of 5% or less (almost no effect))	5 (Herbicidal rate of 90% or more (almost completely withered))	0 (Herbicidal rate of 5% or less (almost no effect))	0 (Herbicidal rate of 5% or less (almost no effect))	0 (Herbicidal rate of 5% or less (almost no effect))	herbicidal effect on D (Chinese sprangletop), rating 0-5 [21]: 0 (Herbicidal rate of 5% or less (almost no effect)); herbicidal effect rating, M: velvetleaf [22]: 0 (Herbicidal rate of 5% or less (almost no effect)); Herbicidal effect on C: oval-leafed pondweed (grade 0-5) [23]: 0 (Herbicidal rate of 5% or less (almost no effect)); herbicidal effect rating, Q: false cleavers [24]: 0 (Herbicidal rate of 5% or less (almost no effect)); herbicidal effect grade, O: lambsquarters [25]: 4 (Herbicidal rate of 70% or more and less than 90%); herbicidal effect rating, G: green foxtail [26]: 0 (Herbicidal rate of 5% or less (almost no effect)); herbicidal effect grade, L: windgrass [27]: 0 (Herbicidal rate of 5% or less (almost no effect)); herbicidal effect grade, M: velvetleaf [28]: 4 (Herbicidal rate of 70% or more and less than 90%); herbicidal effect rating, R: persian speedwell [29]: 3 (Herbicidal rate of 40% or more and less than 70%); herbicidal effect on H (barnyard grass), rating 0-5 [30]: 3 (Herbicidal rate of 40% or more and less than 70%); herbicidal effect on E (rice flat sedge), rating 0-5 [31]: 5 (Herbicidal rate of 90% or more (almost completely withered)); Herbicidal effect on B: Japanese bulrush (grade 0-5) [32]: 1 (Herbicidal rate of 5% or more and less than 20%)
CCCC(=O)Oc1c(C)nn(C)c(=O)c1-c1c(-c2ccc(F)cc2OCC)sc2ccccc12 [1-062]	5 (Herbicidal rate of 90% or more (almost completely withered))	4 (Herbicidal rate of 70% or more and less than 90%)	0 (Herbicidal rate of 5% or less (almost no effect))	4 (Herbicidal rate of 70% or more and less than 90%)	5 (Herbicidal rate of 90% or more (almost completely withered))	3 (Herbicidal rate of 40% or more and less than 70%)	3 (Herbicidal rate of 40% or more and less than 70%)	1 (Herbicidal rate of 5% or more and less than 20%)	4 (Herbicidal rate of 70% or more and less than 90%)	2 (Herbicidal rate of 20% or more and less than 40%)	5 (Herbicidal rate of 90% or more (almost completely withered))	5 (Herbicidal rate of 90% or more (almost completely withered))	5 (Herbicidal rate of 90% or more (almost completely withered))	3 (Herbicidal rate of 40% or more and less than 70%)	5 (Herbicidal rate of 90% or more (almost completely withered))	3 (Herbicidal rate of 40% or more and less than 70%)	5 (Herbicidal rate of 90% or more (almost completely withered))	5 (Herbicidal rate of 90% or more (almost completely withered))	5 (Herbicidal rate of 90% or more (almost completely withered))	5 (Herbicidal rate of 90% or more (almost completely withered))	herbicidal effect on D (Chinese sprangletop), rating 0-5 [21]: 3 (Herbicidal rate of 40% or more and less than 70%); herbicidal effect rating, M: velvetleaf [22]: 3 (Herbicidal rate of 40% or more and less than 70%); Herbicidal effect on C: oval-leafed pondweed (grade 0-5) [23]: 0 (Herbicidal rate of 5% or less (almost no effect)); herbicidal effect rating, Q: false cleavers [24]: 5 (Herbicidal rate of 90% or more (almost completely withered)); herbicidal effect grade, O: lambsquarters [25]: 3 (Herbicidal rate of 40% or more and less than 70%); herbicidal effect rating, G: green foxtail [26]: 4 (Herbicidal rate of 70% or more and less than 90%); herbicidal effect grade, L: windgrass [27]: 5 (Herbicidal rate of 90% or more (almost completely withered)); herbicidal effect grade, M: velvetleaf [28]: 5 (Herbicidal rate of 90% or more (almost completely withered)); herbicidal effect rating, R: persian speedwell [29]: 4 (Herbicidal rate of 70% or more and less than 90%); herbicidal effect on H (barnyard grass), rating 0-5 [30]: 5 (Herbicidal rate of 90% or more (almost completely withered)); herbicidal effect on E (rice flat sedge), rating 0-5 [31]: 5 (Herbicidal rate of 90% or more (almost completely withered)); Herbicidal effect on B: Japanese bulrush (grade 0-5) [32]: 2 (Herbicidal rate of 20% or more and less than 40%)
